# The source made the active and inactive calls. The calls are words filed in the database; no cut-off is given here. Numbered stars: 1 amine (or outer) side, 2 acyl side, 3 side chain; on linkers, the order of the positions; unused ones are H or OH. Square brackets hold non-standard residues; d marks the D form. Peptide text beside a SMILES is read from it. * marks the point of attachment. Benzenesulfonyl(4-Cl,3-CF3) = O=S(=O)(c1ccc(Cl)c(C(F)(F)F)c1)*; γGlu = O=C(O)[C@H](CCC(=O)[*:2])N[*:1]; Tle = CC(C)(C)[C@H](N)C(=O)O; β3hP = O=C(O)C[C@@H]1CCCN1
# Legend:
# Matrilysin = biological target: T1, Matrilysin (Homo sapiens, UniProt P09237); test: Inhibition of recombinant human MMP7 using MOCAc-Pro-Leu-Gly-Leu-A2pr-(Dnp)-Ala-Arg-NH2 as substrate preincubated with compound for 15 mins followed by substrate addition and measured after 2 hrs by fluorescence based analysis
# T1 sequence (P09237 whole entry): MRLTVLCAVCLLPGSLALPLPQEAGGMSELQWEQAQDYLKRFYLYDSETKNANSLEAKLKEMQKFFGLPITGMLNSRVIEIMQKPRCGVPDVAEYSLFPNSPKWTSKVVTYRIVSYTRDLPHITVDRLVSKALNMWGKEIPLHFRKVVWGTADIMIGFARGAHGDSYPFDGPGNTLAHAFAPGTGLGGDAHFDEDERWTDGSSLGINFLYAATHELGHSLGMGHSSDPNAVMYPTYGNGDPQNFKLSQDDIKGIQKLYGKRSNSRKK
# [1] = biological target: Matrix metalloproteinase-14 (Homo sapiens, UniProt P50281); test: Inhibition of recombinant human MMP14 using MOCAc-Lys-Pro-Leu-Gly-Leu-A2pr(Dnp)-Ala-Arg-NH2 as substrate preincubated with compound for 15 mins followed by substrate addition and measured after 1 hrs by fluorescence based analysis
# Mus musculus = test: Antifibrotic activity against unilateral ureteric obstruction induced C57BL/6J mouse model of renal fibrosis assessed as reduction in renal collagen at 0.1 mg/ml preadministered with compound via drinking water for 7 days followed by UUO surgery and measured after 7 days; type: functional, organism-based; conditions: route po, time 14.0 day
# Neutrophil collagenase = Neutrophil collagenase (Homo sapiens, UniProt P22894); test: Inhibition of recombinant human MMP8 using MOCAc-Pro-Leu-Gly-Leu-A2pr-(Dnp)-Ala-Arg-NH2 as substrate preincubated with compound for 15 mins followed by substrate addition and measured after 1 hrs by fluorescence based analysis
# Interstitial collagenase = biological target: T2, Interstitial collagenase (Homo sapiens, UniProt P03956); test: Inhibition of recombinant human MMP1 using MOCAc-Lys-Pro-Leu-Gly-Leu-A2pr(Dnp)-Ala-Arg-NH2 as substrate preincubated with compound for 15 mins followed by substrate addition and measured after 1 hrs by fluorescence based analysis
# T2 sequence (P03956 whole entry): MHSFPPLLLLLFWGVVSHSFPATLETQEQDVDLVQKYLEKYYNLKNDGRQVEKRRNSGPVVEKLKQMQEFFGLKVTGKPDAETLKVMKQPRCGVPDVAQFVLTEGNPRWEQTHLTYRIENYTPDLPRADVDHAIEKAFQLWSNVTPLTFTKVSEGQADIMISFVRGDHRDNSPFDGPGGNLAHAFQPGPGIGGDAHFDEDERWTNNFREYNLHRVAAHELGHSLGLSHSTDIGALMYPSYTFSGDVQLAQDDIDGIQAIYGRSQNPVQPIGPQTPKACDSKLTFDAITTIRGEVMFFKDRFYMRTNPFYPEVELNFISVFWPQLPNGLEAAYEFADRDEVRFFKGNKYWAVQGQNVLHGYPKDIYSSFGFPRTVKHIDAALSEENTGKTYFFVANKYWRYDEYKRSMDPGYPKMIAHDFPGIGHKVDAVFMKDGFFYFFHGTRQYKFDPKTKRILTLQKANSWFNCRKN
# [2] = biological target: 72 kDa type IV collagenase (Homo sapiens, UniProt P08253); test: Inhibition of recombinant human MMP2 using MOCAc-Pro-Leu-Gly-Leu-A2pr-(Dnp)-Ala-Arg-NH2 as substrate preincubated with compound for 15 mins followed by substrate addition and measured after 1 hrs by fluorescence based analysis
# Stromelysin-1 = Stromelysin-1 (Homo sapiens, UniProt P08254); test: Inhibition of recombinant human MMP3 using MOCAc-Arg-Pro-Lys-Pro-Val-Glu-Nva-Trp-Arg-Lys(Dnp)-NH2 as substrate preincubated with compound for 15 mins followed by substrate addition and measured after 1 hrs by fluorescence based analysis
# [3] = biological target: Matrix metalloproteinase-9 (Homo sapiens, UniProt P14780); test: Inhibition of recombinant human MMP9 using MOCAc-Pro-Leu-Gly-Leu-A2pr-(Dnp)-Ala-Arg-NH2 as substrate preincubated with compound for 15 mins followed by substrate addition and measured after 1 hrs by fluorescence based analysis
# [4] = biological target: Macrophage metalloelastase (Homo sapiens, UniProt P39900); test: Inhibition of recombinant human MMP12 using MOCAc-Pro-Leu-Gly-Leu-A2pr-(Dnp)-Ala-Arg-NH2 as substrate preincubated with compound for 15 mins followed by substrate addition and measured after 1 hrs by fluorescence based analysis
# Collagenase 3 = Collagenase 3 (Homo sapiens, UniProt P45452); test: Inhibition of recombinant human MMP13 using MOCAc-Pro-Leu-Gly-Leu-A2pr-(Dnp)-Ala-Arg-NH2 as substrate preincubated with compound for 15 mins followed by substrate addition and measured after 1 hrs by fluorescence based analysis
# Homo sapiens [5] = species on record: Homo sapiens; test: Selectivity ratio of IC50 for inhibition of recombinant human MMP1 to IC50 for inhibition of recombinant human MMP7
# Homo sapiens [6] = species on record: Homo sapiens; test: Selectivity ratio of IC50 for inhibition of recombinant human MMP2 to IC50 for inhibition of recombinant human MMP7
# Homo sapiens [7] = species on record: Homo sapiens; test: Selectivity ratio of IC50 for inhibition of recombinant human MMP3 to IC50 for inhibition of recombinant human MMP7
# Homo sapiens [8] = species on record: Homo sapiens; test: Selectivity ratio of IC50 for inhibition of recombinant human MMP8 to IC50 for inhibition of recombinant human MMP7
# Homo sapiens [9] = species on record: Homo sapiens; test: Selectivity ratio of IC50 for inhibition of recombinant human MMP9 to IC50 for inhibition of recombinant human MMP7
# Homo sapiens [10] = species on record: Homo sapiens; test: Selectivity ratio of IC50 for inhibition of recombinant human MMP12 to IC50 for inhibition of recombinant human MMP7
# Homo sapiens [11] = species on record: Homo sapiens; test: Selectivity ratio of IC50 for inhibition of recombinant human MMP13 to IC50 for inhibition of recombinant human MMP7
# Homo sapiens [12] = species on record: Homo sapiens; test: Selectivity ratio of IC50 for inhibition of recombinant human MMP14 to IC50 for inhibition of recombinant human MMP7
# Sequence of Matrix metalloproteinase-9 (P14780 whole entry): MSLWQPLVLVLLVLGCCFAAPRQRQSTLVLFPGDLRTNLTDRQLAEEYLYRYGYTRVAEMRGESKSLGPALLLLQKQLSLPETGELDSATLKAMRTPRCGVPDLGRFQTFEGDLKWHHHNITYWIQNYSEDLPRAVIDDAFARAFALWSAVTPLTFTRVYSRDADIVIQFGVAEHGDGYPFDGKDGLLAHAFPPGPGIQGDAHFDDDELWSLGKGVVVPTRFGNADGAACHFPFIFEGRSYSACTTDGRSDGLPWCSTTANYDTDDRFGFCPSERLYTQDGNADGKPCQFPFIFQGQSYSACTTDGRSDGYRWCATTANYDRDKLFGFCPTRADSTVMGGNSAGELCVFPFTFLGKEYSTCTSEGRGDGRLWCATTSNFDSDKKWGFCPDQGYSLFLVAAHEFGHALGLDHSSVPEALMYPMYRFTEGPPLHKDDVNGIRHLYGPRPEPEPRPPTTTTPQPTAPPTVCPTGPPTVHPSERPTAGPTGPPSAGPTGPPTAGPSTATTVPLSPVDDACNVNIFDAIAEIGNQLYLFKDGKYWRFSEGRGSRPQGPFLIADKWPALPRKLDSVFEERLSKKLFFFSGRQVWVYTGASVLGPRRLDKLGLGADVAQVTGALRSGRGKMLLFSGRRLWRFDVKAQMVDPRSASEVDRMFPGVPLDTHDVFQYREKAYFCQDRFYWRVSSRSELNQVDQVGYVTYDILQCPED
# Sequence of Macrophage metalloelastase (P39900 whole entry): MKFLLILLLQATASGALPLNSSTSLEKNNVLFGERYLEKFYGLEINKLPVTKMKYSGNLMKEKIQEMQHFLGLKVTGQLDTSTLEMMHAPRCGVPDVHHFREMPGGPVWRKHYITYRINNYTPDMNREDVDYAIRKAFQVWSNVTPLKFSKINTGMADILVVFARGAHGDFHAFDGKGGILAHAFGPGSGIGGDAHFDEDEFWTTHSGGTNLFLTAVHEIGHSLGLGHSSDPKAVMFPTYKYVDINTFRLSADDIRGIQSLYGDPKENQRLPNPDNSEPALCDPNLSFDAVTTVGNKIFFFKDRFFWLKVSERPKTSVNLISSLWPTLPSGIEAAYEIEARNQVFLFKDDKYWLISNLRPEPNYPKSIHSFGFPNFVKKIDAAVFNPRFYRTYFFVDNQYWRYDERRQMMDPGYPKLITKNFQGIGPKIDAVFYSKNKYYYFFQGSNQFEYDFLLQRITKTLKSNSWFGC
# Sequence of Neutrophil collagenase (P22894 whole entry): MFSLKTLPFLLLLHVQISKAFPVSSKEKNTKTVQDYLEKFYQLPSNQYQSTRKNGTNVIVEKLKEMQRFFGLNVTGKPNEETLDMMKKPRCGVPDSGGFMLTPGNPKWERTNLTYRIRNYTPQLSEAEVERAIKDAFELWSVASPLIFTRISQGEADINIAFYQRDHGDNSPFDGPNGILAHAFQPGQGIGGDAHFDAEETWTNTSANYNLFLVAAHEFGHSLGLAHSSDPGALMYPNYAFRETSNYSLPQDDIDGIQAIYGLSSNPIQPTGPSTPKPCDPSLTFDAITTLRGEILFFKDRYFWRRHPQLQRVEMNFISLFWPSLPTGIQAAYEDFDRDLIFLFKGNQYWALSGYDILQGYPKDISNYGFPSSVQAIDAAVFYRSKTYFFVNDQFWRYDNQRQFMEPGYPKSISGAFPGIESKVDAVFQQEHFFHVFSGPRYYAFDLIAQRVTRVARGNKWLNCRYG
# Sequence of Stromelysin-1 (P08254 whole entry): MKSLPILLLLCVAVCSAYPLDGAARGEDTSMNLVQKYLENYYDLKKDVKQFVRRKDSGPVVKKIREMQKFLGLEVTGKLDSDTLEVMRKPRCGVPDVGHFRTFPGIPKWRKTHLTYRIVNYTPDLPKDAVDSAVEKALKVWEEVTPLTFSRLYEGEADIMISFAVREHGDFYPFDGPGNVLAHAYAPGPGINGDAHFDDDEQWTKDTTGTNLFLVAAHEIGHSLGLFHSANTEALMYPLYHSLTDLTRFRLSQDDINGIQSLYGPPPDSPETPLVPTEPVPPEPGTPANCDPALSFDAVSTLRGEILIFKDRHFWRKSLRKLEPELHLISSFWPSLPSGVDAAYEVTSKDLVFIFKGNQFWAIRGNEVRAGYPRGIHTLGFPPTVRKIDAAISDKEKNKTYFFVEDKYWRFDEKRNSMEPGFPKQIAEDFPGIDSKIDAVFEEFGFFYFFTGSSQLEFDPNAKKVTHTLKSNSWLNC
# Sequence of 72 kDa type IV collagenase (P08253 whole entry): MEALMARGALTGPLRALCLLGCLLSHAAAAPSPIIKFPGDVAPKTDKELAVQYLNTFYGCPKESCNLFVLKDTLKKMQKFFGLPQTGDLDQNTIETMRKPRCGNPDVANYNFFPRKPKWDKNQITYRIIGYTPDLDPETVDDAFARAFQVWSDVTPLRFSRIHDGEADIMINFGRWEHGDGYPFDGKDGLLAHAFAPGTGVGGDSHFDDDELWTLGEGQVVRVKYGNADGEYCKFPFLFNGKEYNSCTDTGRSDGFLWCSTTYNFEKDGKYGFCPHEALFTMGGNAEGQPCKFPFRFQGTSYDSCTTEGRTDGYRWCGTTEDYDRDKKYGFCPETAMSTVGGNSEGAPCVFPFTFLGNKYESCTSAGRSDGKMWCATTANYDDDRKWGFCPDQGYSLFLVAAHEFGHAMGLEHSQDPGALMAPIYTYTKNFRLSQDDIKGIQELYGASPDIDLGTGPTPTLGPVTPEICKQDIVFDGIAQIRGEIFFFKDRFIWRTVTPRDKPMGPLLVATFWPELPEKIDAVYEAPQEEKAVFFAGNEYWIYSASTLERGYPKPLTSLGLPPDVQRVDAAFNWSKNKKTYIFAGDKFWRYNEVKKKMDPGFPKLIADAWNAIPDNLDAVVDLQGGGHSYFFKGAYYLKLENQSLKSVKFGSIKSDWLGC
IC50 (Matrilysin),IC50 [1],SMILES,other results
32 nM,8300 nM,CC(C)(C)[C@H](NC(=O)[C@H](Cn1ccnn1)NC(=O)CNC(=O)CC[C@H](NS(=O)(=O)c1ccc(Cl)c(C(F)(F)F)c1)C(=O)O)C(=O)N1CCC[C@H]1CC(N)=O,–
40 nM,9300 nM,CC(C)(C)[C@H](NC(=O)[C@H](Cn1cc(C2CC2)nn1)NC(=O)CNC(=O)CC[C@H](NS(=O)(=O)c1ccc(Cl)c(C(F)(F)F)c1)C(=O)O)C(=O)N1CCC[C@H]1CC(N)=O,–
100 nM,16000 nM,CC(C)c1cn(C[C@H](NC(=O)CNC(=O)CC[C@H](NS(=O)(=O)c2ccc(Cl)c(C(F)(F)F)c2)C(=O)O)C(=O)N[C@H](C(=O)N2CCC[C@H]2CC(N)=O)C(C)(C)C)nn1,–
23 nM,46000 nM,CC(C)Cn1cc(-c2ccc(C[C@H](NC(=O)CNC(=O)CC[C@H](NS(=O)(=O)c3ccc(Cl)c(C(F)(F)F)c3)C(=O)O)C(=O)N[C@H](C(=O)N3CCC[C@H]3CC(N)=O)C(C)(C)C)cc2)cn1,–
6 nM,8400 nM,CC(C)(C)[C@H](NC(=O)[C@H](Cc1cccnn1)NC(=O)CNC(=O)CC[C@H](NS(=O)(=O)c1ccc(Cl)c(C(F)(F)F)c1)C(=O)O)C(=O)N1CCC[C@H]1CC(N)=O,–
–,–,CCCCc1nc(Cl)c(CO)n1Cc1ccc(-c2ccccc2-c2nnn[nH]2)cc1,Activity (Mus musculus): Active
13 nM,3200 nM,"CC(C)(C)[C@H](NC(=O)[C@H](Cc1ccccc1)NC(=O)CNC(=O)CC[C@H](NS(=O)(=O)c1ccc(Cl)c(C(F)(F)F)c1)C(=O)O)C(=O)N1CCC[C@H]1CC(N)=O ({Benzenesulfonyl(4-Cl,3-CF3)-γGlu}-GF[Tle][β3hP]-NH2)",–
7.7 nM,240 nM,"CC(C)C[C@H](NC(=O)CNC(=O)CC[C@H](NS(=O)(=O)c1ccc(Cl)c(C(F)(F)F)c1)C(=O)O)C(=O)N[C@H](C(=O)N1CCC[C@H]1CC(N)=O)C(C)(C)C ({Benzenesulfonyl(4-Cl,3-CF3)-γGlu}-GL[Tle][β3hP]-NH2)",IC50 (Neutrophil collagenase): 55000 nM; IC50 (Interstitial collagenase): 92000 nM; IC50 [2]: 8500 nM; IC50 (Stromelysin-1): > 100000 nM; IC50 [3]: > 100000 nM; IC50 [4]: 2900 nM; IC50 (Collagenase 3): > 100000 nM; Ratio IC50 (Homo sapiens [5]): 12000; Ratio IC50 (Homo sapiens [6]): 1100; Ratio IC50 (Homo sapiens [7]): > 13000; Ratio IC50 (Homo sapiens [8]): 7100; Ratio IC50 (Homo sapiens [9]): > 13000; Ratio IC50 (Homo sapiens [10]): 380; Ratio IC50 (Homo sapiens [11]): > 13000; Ratio IC50 (Homo sapiens [12]): 31
14 nM,2000 nM,"COc1ccc(C[C@H](NC(=O)CNC(=O)CC[C@H](NS(=O)(=O)c2ccc(Cl)c(C(F)(F)F)c2)C(=O)O)C(=O)N[C@H](C(=O)N2CCC[C@H]2CC(N)=O)C(C)(C)C)cc1 ({Benzenesulfonyl(4-Cl,3-CF3)-γGlu}-GY(Me)[Tle][β3hP]-NH2)",–
9.6 nM,2700 nM,"CC(C)(C)[C@H](NC(=O)[C@H](Cc1ccc(O)cc1)NC(=O)CNC(=O)CC[C@H](NS(=O)(=O)c1ccc(Cl)c(C(F)(F)F)c1)C(=O)O)C(=O)N1CCC[C@H]1CC(N)=O ({Benzenesulfonyl(4-Cl,3-CF3)-γGlu}-GY[Tle][β3hP]-NH2)",–

# Source: ChEMBL document CHEMBL5370641, “Structure-Based Optimization and Biological Evaluation of Potent and Selective MMP-7 Inhibitors for Kidney Fibrosis” (J Med Chem, 2023)
